Values of other authors as cited in US20160331734A1, “SUBSTITUTED N-ARYL PYRIDINONES” (AUSPEX PHARMACEUTICALS, INC., priority 2014, published 2016).

Key:
[1] = humans

Cc1ccc(=O)n(-c2ccccc2)c1 [Pirfenidone, 5-Methyl-1-phenylpyridin-2(1H)-one]
DNA synthesis (leiomyoma cells): inhibits DNA synthesis | half-life [1]: very short | DNA synthesis (myometrial cells): inhibits DNA synthesis
